In patent publication US20070224291A1, “Cancer treatment” (priority 2005, published 2007):

Tests used:
Ehrlich ascites tumor = assay: Antitumor activity, transplantable Ehrlich ascites tumor (intraperitoneal); format: in vivo; conditions: mice, reference medication, optimal therapeutic dose of 25 ml/kg
Procedure: (§1) The antitumor activity of the medication of the present invention was studied in mice and rats with transplantable tumors of Sarcoma 37, 45, and 180, and Ehrlich ascites tumor.
(§2) In the study of antitimor properties of the medication of the present invention, the medication was used in doses of 20 and 40 ml/kg, and 10 and 30 ml/kg in the tests on mice and rats, respectively. The general toxic action which the medication had on the organism of the tested animals was estimated by their outer appearance and behavior during the experiment, as well as by the Growth Ratio (GR) expressed in percent.
The numerical data obtained was processed statistically by Student-Fisher's method.

Sarcoma 180 = assay: Antitumor activity, transplantable Sarcoma 180 (subcutaneous); format: in vivo; conditions: mice, reference medication, identical experimental conditions
Procedure: as §1
(§3) Necrosis-free pieces of tumoral tissue (a peripheral part of a tumoral node) cut with scissors to form a homogeneous mass served as transplantants for solid models (Sarcomas 37, 45 and 180). A sterile physiological solution in the proportion of 1:3-1:4 was added to the tumor and the resulting suspension was introduced with a syringe subcutaneously to the animals. The transplantation was conducted in sterile box conditions using 12-14 days' tumor as a donor. The transplantation of sarcomas 37 and 180 was performed by means of subcutaneous introduction of 0.2-0.3 ml of the 20% tumoral suspension in a physiological solution to the axillary crease of each mouse. For the transplantation of Sarcoma 45, by 0.4-0.5 ml of suspension of tumoral cells was introduced subcutaneously (to the lateral area) of each rat. On the 4th-5th days after inoculation, when the transplanted tumor is usually pea-size, the animals were divided into test and control groups each having 8 mice and 10 rats. […] A day after the last injection of the medication, the animals were killed with ether, weighed, and the weight of tumors was measured separately. […]

Sarcoma 37 = assay: Antitumor activity, transplantable Sarcoma 37 (subcutaneous); format: in vivo; conditions: mice, reference medication, identical experimental conditions
Procedure: as §1, §3

Sarcoma 45 = assay: Antitumor activity, transplantable Sarcoma 45 (subcutaneous); format: in vivo; conditions: rats, reference medication, identical experimental conditions
Procedure: as §1, §3

[1] = in vivo
Procedure: as §2

- GR, span over all tests [1]: −7.3 to −11
SMILES: O=c1[nH]cc(F)c(=O)[nH]1 [5-fluorouracil]
- antitumor effect (inhibition of ascit accumulation) (Ehrlich ascites tumor): 70%
- inhibition of tumor growth (Sarcoma 180): 45%
- therapeutic effect (inhibition of tumor growth) (Sarcoma 37): 70%
- inhibition of tumor growth (Sarcoma 45): 32%
